How the values were obtained:
[1] = system: CCR6^+ TM cells; assay: Effect of PI-3K/Akt inhibitors on cytokine production of IL-7-cultured CCR6+ memory T cells; type: cell-based, human; details: one week in IL-7, then inhibitor for 48 hours, restimulation
Method: (§1) Peripheral Blood Mononuclear Cells (PBMCs) from healthy individuals (New York Blood Center, New York, N.Y.) were prepared using Ficoll-paque plus (GE Amersham, Uppsala, Sweden). Whole blood samples from rheumatoid arthritis patients were purchased from Bioreclamation (New York, N.Y.) and were processed similar to healthy donor blood. All healthy donor and patient samples were consented prior to purchase, were none-identifiable and approved by institutional human subjects board. CD4^+ T cells were isolated using Dynal CD4 Positive Isolation Kit (Invitrogen, Carlsbad, Calif.) directly from purified PBMCs and were >99% pure. CD4^+ T cells were sorted by FACS ARIA cell sorter (BD, San Jose, Calif.) into CD45RO^+ CD25^− memory T (TM) cells. TM cells were activated either by anti-CD3 and anti-CD28 (aCD3/aCD28) coated beads (1:4 beads:cells ratio) for 18-24 hours, or by Phorbol 12-myristate 13-acetate (PMA) and ionomycin for 4 hours and further FACS sorted based on CCR6 and IL-17 expression into CCR6^−IL-17^−, CCR6^+IL-17^+, or CCR6^+ IL-17^− subsets (as determined by secretion assay labeling, see below). Sorted cells (>99% pure) were cultured in serum-free Xvivo-15 medium (Lonza, Wakersville, Md.) at 37° C. and 5% CO2 for 6-7 days prior to restimulation with PMA and ionomycin (see below). […] To determine the fold expansion, CCR6^+IL-17^+ or CCR6^+IL-17^− subsets were labeled with CFSE (Molecular Probes, Eugene, Oreg.) or eFluor 670 (eBioscience, San Diego, Calif.), respectively, as previously described (Oswald-Richter, et al., PLoS Biol 2004; 2: E198). […] In the experiments using PI-3K signaling inhibitors, cells were treated with PI-3K specific inhibitor, LY294002 (EMD, Gibbstown, N.J.), or Akt specific inhibitor, AKTi-1/2 (EMD), for 2 days before PMA and Ionomycin restimulation.

[2] = system: Akt; assay: Cytokine-dependent Akt phosphorylation in memory T cells treated with inhibitors; type: cell-based, human; details: 1-10 μg/mL inhibitor, 48 hours
Method: (§2) Peripheral Blood Mononuclear Cells (PBMCs) from healthy individuals (New York Blood Center, New York, N.Y.) were prepared using Ficoll-paque plus (GE Amersham, Uppsala, Sweden). Whole blood samples from rheumatoid arthritis patients were purchased from Bioreclamation (New York, N.Y.) and were processed similar to healthy donor blood. All healthy donor and patient samples were consented prior to purchase, were none-identifiable and approved by institutional human subjects board. CD4^+ T cells were isolated using Dynal CD4 Positive Isolation Kit (Invitrogen, Carlsbad, Calif.) directly from purified PBMCs and were >99% pure. CD4^+ T cells were sorted by FACS ARIA cell sorter (BD, San Jose, Calif.) into CD45RO^+ CD25^− memory T (TM) cells. TM cells were activated either by anti-CD3 and anti-CD28 (aCD3/aCD28) coated beads (1:4 beads:cells ratio) for 18-24 hours, or by Phorbol 12-myristate 13-acetate (PMA) and ionomycin for 4 hours and further FACS sorted based on CCR6 and IL-17 expression into CCR6^−IL-17^−, CCR6^+IL-17^+, or CCR6^+ IL-17^− subsets (as determined by secretion assay labeling, see below). Sorted cells (>99% pure) were cultured in serum-free Xvivo-15 medium (Lonza, Wakersville, Md.) at 37° C. and 5% CO2 for 6-7 days prior to restimulation with PMA and ionomycin (see below). […]

[3] = system: TM cells; assay: Cell viability of memory T cells treated with inhibitors; details: 1-10 μg/mL inhibitor, 48 hours
[4] = system: CCR6^+IL-17^− TM cells; assay: IL-17 induction in activated, FACS-sorted CCR6+IL-17- memory T cells cultured with cytokines, intracellular staining after PMA/ionomycin; type: cell-based, human; details: for IL-17 expression in CCR6+IL-17- T cells: cultured 6 days in the cytokine, compared with IL-2, FIG. 1e
Method: as §1
Manufacturer's protocols (Miltenyi Biotec) for labeling human and mouse IL-17 secreting cells were followed. Briefly, activated T-cells were washed in cold buffer (PBS+0.5% BSA+2 mM EDTA) and labeled with IL-17 catch reagent for 5 minutes on ice. Pre-warmed medium was then added and the cells were incubated at 37° C. on a shaker for 45 minutes. For human IL-17 capture experiments, cells were washed once more with cold buffer and PE-conjugated IL-17 detection antibodies were added and incubated on ice for 10 minutes. For mouse IL-17 capture experiments, all steps were identical, except that the IL-17 detection antibody used was biotinylated, and a secondary staining step using APC-conjugated streptavidin was used. Cells were then washed and stained with additional cell surface antibodies at room temperature for 20 minutes. These cells were then washed once more with cold buffer, resuspended in serum-free RPMI 1640 medium, filtered and FACS sorted. […]

[5] = system: CCR6^− TM cells; assay: IL-17 induction in sorted CCR6-IL-17- memory T cells cultured with cytokines; type: cell-based, human; details: cultured 6 days in the cytokine, restimulation
Method: as §2

[6] = system: resting CCR6^+CD45RO^+CD25^− TM cells; assay: Cytokine expression in resting CCR6+ memory T cells stimulated with cytokines without TCR stimulation; type: cell-based, human
Method: as §1, with “[…] […]” for “TM cells were activated either by anti-CD3 and anti-CD28 (aCD3/aCD28) coated beads (1:4 beads:cells ratio) for 18-24 hours, or by Phorbol 12-myristate 13-acetate (PMA) and ionomycin for 4 hours and further FACS sorted based on CCR6 and IL-17 expression into CCR6^−IL-17^−, CCR6^+IL-17^+, or CCR6^+ IL-17^− subsets (as determined by secretion assay labeling, see below). Sorted cells (>99% pure) were cultured in serum-free Xvivo-15 medium (Lonza, Wakersville, Md.) at 37° C. and 5% CO2 for 6-7 days prior to restimulation with PMA and ionomycin (see below).”

[7] = system: CCR6^− TM cells; assay: Cytokine expression in resting CCR6- memory T cells stimulated with IL-7; type: cell-based, human
Method: as §2

[8] = system: RORC; assay: RORC / Foxp3 mRNA expression by quantitative PCR; type: cell-based, human; details: unpublished data
Excerpt: Purified T cells (1×10^5) were snap frozen in liquid nitrogen for total RNA isolation. Total RNA was isolated using RNeasy isolation kit (Qiagen, Valencia, Calif.) according to the manufacturer's protocol. The extracted RNA was then reverse transcribed into cDNA and quantified using Taqman Cell to CT kit (Applied Biosystems, Carlsbad, Calif.). Taqman primers and probe sets were purchased from Applied Biosystems: Human KLF2 (Hs00360439_g1), RORC (Hs01076120_g1), Il-17a (Hs00174383_m1), b-Actin (Hs03023880_g1), Foxp3 (Hs00203958_m1). Data was acquired and analyzed on ABI 7500 sequence detection system. Quantitative real-time PCR data was analyzed by normalizing Ct values of genes of interest to the Ct values of the housekeeping gene b-Actin.

Molecule: O=c1[nH]c2ccccc2n1C1CCN(Cc2ccc(-c3nc4cc5nc[nH]c5cc4nc3-c3ccccc3)cc2)CC1 [AKTi-1/2]
- expression of IFNγ [1]: not affected
- expression of IL-4 [1]: less reduced
- γc-mediated IL-17/IL-22 induction [1]: repressed γc-mediated IL-17/IL-22 induction in a dose-dependent manner
- cytokine-dependent phosphorylation of Akt [2]: downregulated cytokine-dependent phosphorylation of Akt
- cell viability [3]: without adversely affecting cell viability

Molecule: IL-15: γc-cytokine from R&D Systems, used at 20 ng/mL
- IL-17 expression in CCR6+IL-17- T cells [4]: induced similar levels of IL-17 expression
- IL-17 expression in CCR6- TM cells [5]: neither IL-7 nor IL-15 induced IL-17 expression

Molecule: IL-7: γc-cytokine from R&D Systems, used at 20 ng/mL
- IL-17 expression in CCR6+IL-17- T cells [4]: induced similar levels of IL-17 expression
- IL-17 expression in CCR6- TM cells [5]: neither IL-7 nor IL-15 induced IL-17 expression
- enhancement of IL-17 expression compared to the same cells ex vivo (day 0) ([6]; 10 days, no TCR stimulation): more than 3 fold
- enhancement of IL-22 expression compared to the same cells ex vivo (day 0) ([6]; 10 days, no TCR stimulation): more than 3 fold
- increase of cells co-expressing IL-22 or IFNγ with IL-17 ([6]; IL-7 stimulation): more than 5 fold
- IFNγ production ([6]; resting CCR6+ or CCR6- TM cells cultured with IL-7): almost no impact
- IL-17 or IL-22 expression in CCR6- TM cells [7]: failed to express IL-17 or IL-22
- RORC mRNA expression levels [8]: neither IL-7 stimulation, nor treatment with PI-3K or Akt inhibitors, nor overexpression of FOXO1 or KLF2 affected RORC mRNA expression levels

Molecule: IL-23: cytokine from R&D Systems, used at 20 ng/mL; known to enhance Th17 cell differentiation
- induction of IL-17/IL-22 expression from CCR6+ human TM cells ([4]; IL-23 in place of γc cytokines, unpublished data): not able to compensate for γc cytokines
- IL-17 expression in CCR6+IL-17- T cells [4]: did not influence IL-17 expression
- further induction of IL-17 or IL-22 expression in combination with IL-7 ([6]; resting CCR6+ TM cells): did not significantly synergize with IL-7

Molecule: IL-4: another γc-cytokine
- IL-17/IL-22 (Th17 cytokine) expression in resting CCR6+ TM cells ([6]; no TCR stimulation, unpublished data): did not promote Th17 cytokine production
- TM cell survival ([6]; resting TM cells, unpublished data): did not promote Th17 cytokine production in resting CCR6^+ TM cells or confer TM cell survival
